Data from patent US11407771B2 (priority 2018, dated 2022).

target: MAPK13 (Homo sapiens (Human), UniProt O15264); conditions: read-out: MAPK13 IC50
Sequence (O15264 whole entry): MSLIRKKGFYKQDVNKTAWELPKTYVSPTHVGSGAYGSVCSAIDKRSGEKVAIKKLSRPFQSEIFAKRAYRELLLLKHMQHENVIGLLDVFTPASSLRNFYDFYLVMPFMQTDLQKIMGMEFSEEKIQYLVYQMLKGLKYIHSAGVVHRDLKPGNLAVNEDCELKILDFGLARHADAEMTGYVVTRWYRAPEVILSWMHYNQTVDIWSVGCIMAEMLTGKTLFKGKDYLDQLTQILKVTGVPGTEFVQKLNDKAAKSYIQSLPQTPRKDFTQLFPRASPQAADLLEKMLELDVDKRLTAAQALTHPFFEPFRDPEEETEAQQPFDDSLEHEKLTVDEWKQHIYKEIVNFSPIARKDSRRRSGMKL

| Structure (SMILES) | IC50 [nM] |
| --- | --- |
| Cc1ccc(-n2nc(C(C)(C)C)cc2NC(=O)Nc2ncc(CCc3ccnc(NC(=O)C4CC4)c3)s2)cc1 [Compound 331, Cyclopropanecarboxylic acid [4-(2-{2-[3-(5-tert-butyl-2-p-tolyl-2H-pyrazol-3-yl)-ureido]-thiazol-5-yl}ethyl)-pyridin-2-yl]-amide] | 11 |
| Cc1ccc(-n2nc(C(C)(C)C)cc2NC(=O)Nc2ncc(CCc3ccnc(NC(=O)C4CCC4)c3)s2)cc1 [Compound 332, Cyclobutanecarboxylic acid [4-(2-{2-[3-(5-tert-butyl-2-p-tolyl-2H-pyrazol-3-yl)-ureido]-thiazol-5-yl}-ethyl)-pyridin-2-yl]-amide] | 18 |

same assay, conditions: read-out: MAPK13 inhibition

| Structure (SMILES) | IC50 [nM] |
| --- | --- |
| COCC(=O)Nc1cc(Oc2ccc(NC(=O)Nc3cc(C4(C)COC4)nn3-c3ccc(C)cc3)cc2)ccn1 [Compound 259, 2-Methoxy-N-[4-(4-{3-[5-(3-methyl-oxetan-3-yl)-2-p-tolyl-2H-pyrazol-3-yl]-ureido}-phenoxy)-pyridin-2-yl]-acetamide] | < 250 |
| COCC(=O)Nc1cc(Oc2ccc(NC(=O)Nc3cc(C4(C)CSC4)nn3-c3ccc(C)cc3)cc2)ccn1 [Compound 260, 2-Methoxy-N-[4-(4-{3-[5-(3-methyl-thietan-3-yl)-2-p-tolyl-2H-pyrazol-3-yl]-ureido}-phenoxy)-pyridin-2-yl]-acetamide] | < 250 |
| COC(=O)Nc1cc(Oc2ccc(NC(=O)Nc3cc(C4(C)COC4)nn3-c3ccc(C)cc3)cc2)ccn1 [Compound 261, [4-(4-{3-[5-(3-Methyl-oxetan-3-yl)-2-p-tolyl-2H-pyrazol-3-yl]-ureido}-phenoxy)-pyridin-2-yl]-carbainic acid methyl ester] | < 250 |
| COC(=O)Nc1cc(Oc2ccc(NC(=O)Nc3cc(C4(C)CSC4)nn3-c3ccc(C)cc3)cc2)ccn1 [Compound 262, [4-(4-{3-[5-(3-Methyl-thietan-3-yl)-2-p-tolyl-2H-pyrazol-3-yl]-ureido}-phenoxy)-pyridin-2-yl]-carbamic acid methyl ester] | < 250 |
| Cc1ccc(-n2nc(C3(C)CSC3)cc2NC(=O)Nc2ncc(CCc3ccncc3)s2)cc1 [Compound 273, 1-[5-(3-Methyl-thietan-3-yl)-2-p-tolyl-2H-pyrazol-3-yl]-3-[5-(2-pyridin-4-yl-ethyl)-thiazol-2-yl]-urea] | < 250 |
| CCNC(=O)Nc1cc(CCc2cnc(NC(=O)Nc3cc(C(C)(C)C)nn3-c3ccc(C)cc3)s2)ccn1 [Compound 284, 1-[4-(2-{2-[3-(5-tert-Butyl-2-p-tolyl-2H-pyrazol-3-yl)-ureido]-thiazol-5-yl}-ethyl)-pyridin-2-yl]-3-ethyl-urea] | < 250 |
| Cc1ccc(-n2nc(C(C)(C)C)cc2NC(=O)Nc2ncc(CCc3ccnc(NC(=O)C4CCOCC4)c3)s2)cc1 [Compound 288, Tetrahydro-pyran-4-carboxylic acid [4-(2-{2-[3-(5-tert-butyl-2-p-tolyl-2H-1-pyrazol-3-yl)-ureido]-thiazol-5-yl}-ethyl)-pyridin-2-yl]-amide] | < 250 |
| Cc1ccc(-n2nc(C(C)(C)C)cc2NC(=O)Nc2ccc(Oc3ccncc3C)cc2F)cc1 [Compound 300, 1-(5-tert-Butyl-2-p-tolyl-2H-pyrazol-3-yl)-3-[2-fluoro-4-(3-methyl-pyridin-4-yloxy)-phenyl]-urea] | < 250 |
| CC(C)(C)c1cc(NC(=O)Nc2ccc(Oc3ccncc3)cc2F)n(-c2ccc(F)cc2)n1 [Compound 303, 1-[5-tert-Butyl-2-(4-fluoro-phenyl)-2H-pyrazol-3-yl]-3-[2-fluoro-4-(pyridin-4-yloxy)-phenyl]-urea] | < 250 |
| CC(C)(C)c1cc(NC(=O)Nc2ccc(Oc3ccnc(N)c3)cc2F)n(-c2cccc(F)c2)n1 [Compound 304, 1-[4-(2-Amino-pyridin-4-yloxy)-2-fluoro-phenyl]-3-[5-tert-butyl-2-(3-fluoro-phenyl)-2H-pyrazol-3-yl]-urea] | < 250 |
| CC(C)(C)c1cc(NC(=O)Nc2ccc(Oc3ccncc3)cc2F)n(-c2cccc(F)c2)n1 [Compound 306, 1-[5-tert-butyl-2-(3-fluorophenyl)pyrazol-3-yl]-3-[2-fluoro-4-(4-pyridyloxy)phenyl]urea] | < 250 |
| CC(C)(C)c1cc(NC(=O)Nc2ccc(Oc3ccncc3)cc2F)n(CC2CC2)n1 [Compound 310, 1-(5-tert-Butyl-2-cyclopropylmethyl-2H-pyrazol-yl)-3-[2-fluoro-4-(pyridin-4-yloxy)-phenyl]-urea] | < 250 |
| COC(=O)Nc1cc(CCc2ccc(NC(=O)Nc3cc(C(C)(C)C)nn3-c3ccc(C)cc3)c(F)c2)ccn1 [Compound 315, [4-(2-{4-[3-(5-tert-Butyl-2-p-tolyl-2H-pyrazol-3-yl)-ureido]-3-fluoro-phenyl}-ethyl)-pyridin-2-yl]-carbamic acid methyl ester] | > 1000 |
| CC(=O)Nc1cc(CCc2cnc(NC(=O)Nc3cc(C(C)(C)C)nn3CC3CC3)s2)ccn1 [Compound 325, N-[4-(2-{2-[3-(5-tert-Butyl-2-cyclopropylmethyl-2H-pyrazol-3-yl)-ureido]-thiazol-5-yl}-ethyl)-pyridin-2-yl]-acetamide] | < 250 |
| CC(=O)Nc1cc(CCc2ccc(NC(=O)Nc3cc(C(C)(C)C)nn3-c3ccc(C)cc3)c(F)c2)ccn1 [Compound 329, N-[4-(2-{4-[3-(5-tert-Butyl-2-p-tolyl-2H-pyrozol-3-yl)-ureido]-3-fluoro-phenyl}-ethyl)-pyridin-2-yl]-acetamide] | < 250 |
| Cc1ccc(-n2nc(C(C)(C)C)cc2NC(=O)Nc2ncc(CCc3ccnc(NC(=O)C4CC4)c3)s2)cc1 [Compound 331, Cyclopropanecarboxylic acid [4-(2-{2-[3-(5-tert-butyl-2-p-tolyl-2H-pyrazol-3-yl)-ureido]-thiazol-5-yl}ethyl)-pyridin-2-yl]-amide] | < 250 |

| Structure (SMILES) | IC50 [nM] |
| --- | --- |
| Cc1ccc(-n2nc(C(C)(C)C)cc2NC(=O)Nc2ncc(CCc3ccnc(NC(=O)C4CCC4)c3)s2)cc1 [Compound 332, Cyclobutanecarboxylic acid [4-(2-{2-[3-(5-tert-butyl-2-p-tolyl-2H-pyrazol-3-yl)-ureido]-thiazol-5-yl}-ethyl)-pyridin-2-yl]-amide] | < 250 |
| CC(C)(C)c1cc(NC(=O)Nc2ncc(CCc3ccnc(NC(=O)C4CC4)c3)s2)n(CC2CC2)n1 [Compound 334, Cyclopropanecarboxylic acid [4-(2-{2-[3-(5-tert-butyl-2-cyclopropylmethyl-2H-pyrazol-3-yl)-ureido]-thiazol-5-yl}-ethyl)-pyridin-2-yl]-amide] | < 250 |
| CCOC(=O)Nc1cc(CCc2cnc(NC(=O)Nc3cc(C(C)(C)C)nn3C)s2)ccn1 [Compound 335, [4-(2-{2-[3-(5-tert-Butyl-2-methyl-2H-pyrazol-3-yl)-ureido]-thiazol-5-yl}-ethyl)-pyridin-2-yl]-carbamic acid ethyl ester] | < 250 |
| Cc1ccc(-n2nc(C(C)(C)C)cc2NC(=O)Nc2ncc(CCc3ccnc(NC(=O)N4CCCC4)c3)s2)cc1 [Compound 337, Pyrrolidine-1-carboxylic acid [4-(2-{2-[3-(5-tert-butyl-2-p-tolyl-2H-pyrazol-3-yl)-ureido]-thiazol-5-yl}-ethyl)-pyridin-2-yl]-amide] | < 250 |
| CC(C)(C)c1cc(NC(=O)Nc2ncc(CCc3ccnc(NC(=O)C4CCC4)c3)s2)n(CC2CC2)n1 [Compound 339, Cyclobutanecarboxylic acid [4-(2-{2-[3-(5-tert-butyl-2-cyclopropylmethyl-2H-pyrazol-3-yl)-ureido]-thiazol-5-yl}-ethyl)-pyridin-2-yl]-airdde] | < 250 |
| CCNC(=O)Nc1cc(CCc2cnc(NC(=O)Nc3cc(C(C)(C)C)nn3CC3CC3)s2)ccn1 [Compound 340, 1-[4-(2-{2-[3-(5-tert-Butyl-2-cyclopropylmethyl-2H-pyrazol-3-yl)-uredo]-thiazol-5-yl}-ethyl)-pyridin-2-yl]-3-ethyl-urea] | < 250 |
| COCCC(=O)Nc1cc(CCc2cnc(NC(=O)Nc3cc(C(C)(C)C)nn3CC3CC3)s2)ccn1 [Compound 342, N-[4-(2-{2-[3-(5-tert-Butyl-2-cyclopropylmethyl-2H-pyrazol-3-yl)-ureido]-thiazol-5-yl}-ethyl)-pyridin-2-yl]-3-methoxy-propionamide] | < 250 |
| Cn1nc(C(C)(C)C)cc1NC(=O)Nc1ncc(CCc2ccnc(NC(=O)C3CC3)c2)s1 [Compound 345, Cyclopropanecarboxylic acid [4-(2-{2-[3-(5-tert-butyl-2-methyl-2H-pyrazol-3-yl)-ureido]-thiazol-5-yl}-ethyl)-pyridin-2-yl]-amide] | < 250 |
| CC(C)C(=O)Nc1cc(CCc2cnc(NC(=O)Nc3cc(C(C)(C)C)nn3C)s2)ccn1 [Compound 349, N-[4-(2-{2-[3-(5-tert-Butyl-2-methyl-2H-pyrazol-3-yl)-ureido]-thiazol-5-yl}-ethyl)-pyridin-2-yl]-isobutyramide] | < 250 |
| COCC(=O)Nc1cc(CCc2cnc(NC(=O)Nc3cc(C(C)(C)C)nn3C)s2)ccn1 [Compound 350, N-[4-(2-{2-[3-(5-tert-Butyl-2-methyl-2H-pyrazol-3-yl)-ureido]-thiazol-5-yl}-ethyl)-pyridin-2-yl]-2-methoxy-acetamide] | < 250 |
| CCNC(=O)Nc1cc(CCc2cnc(NC(=O)Nc3cc(C(C)(C)C)nn3C)s2)ccn1 [Compound 352, 1-[4-(2-{2-[3-(5-tert-Butyl-2-methyl-2H-pyrazol-3-yl)-ureido]-thiazol-5-yl}ethyl)-pyridin-2-yl]-3-ethyl-urea] | < 250 |
| Cn1nc(C(C)(C)C)cc1NC(=O)Nc1ncc(CCc2ccnc(NC(=O)C3CCC3)c2)s1 [Compound 353, Cyclobutanecarboxylic acid [4-(2-{2-[3-(5-tert-butyl-2-methyl-2H-pyrazol-3-yl)-ureido]-thiazol-5-yl}-ethyl)-pyridin-2-yl]-amide] | < 250 |
| CCOC(=O)Nc1cc(CCc2cnc(NC(=O)Nc3cc(C(F)(F)F)ccc3F)s2)ccn1 [Compound 357, [4-(2-{2-[3-(2-Fluoro-5-trifluoromethyl-phenyl)-ureido]-thiazol-5yl}-ethyl)-pyridin-2-yl]-carbamic acid ethyl ester] | > 1000 |
| CC(=O)Nc1cc(CCc2ccc(NC(=O)Nc3cc(C(C)(C)C)on3)c(F)c2)ccn1 [Compound 358, N-[4-(2-{4-[3-(5-tert-Butyl-isoxazol-3-yl)-ureido]-3-fluoro-phenyl}-ethyl)-pyridin-2-yl]-acetamide] | > 1000 |
| CC(=O)Nc1cc(CCc2ccc(NC(=O)Nc3cc(C(C)(C)C)no3)c(F)c2)ccn1 [Compound 359, N-[4-(2-{4-[3-(3-tert-Butyl-isoxazol-5-yl)-ureido]-3-fluoro-phenyl}-ethyl)-pyridin-2-yl]-acetamide] | > 1000 |
| CC(=O)Nc1cc(CCc2ccc(NC(=O)Nc3cc(C(F)(F)F)ccc3F)c(F)c2)ccn1 [Compound 360, N-[4-(2-{3-Fluoro-4-[3-(2-fluoro-5-trifluoromethyl-phenyl)-ureido]-phenyl}-ethyl)-pyridin-2-yl]-acetamide] | > 1000 |
